The values below come from US20120129843A1, “PYRIDYL-THIAZOLYL INHIBITORS OF PRO-MATRIX METALLOPROTEINASE ACTIVATION” (priority 2010, published 2012).

For orientation: IC50 means the concentration that inhibits the measured activity by half. By Kd is commonly meant the free concentration of one partner at which half of the binding sites on the other are occupied at equilibrium, for simple one-to-one binding. Low readings indicate higher affinity, high ones lower affinity.

Counter-ions that a name gives are not always drawn.

Experiment [1] addresses T1, full-length proMMP9(1-707) (SEQ ID NO:1), activation by catalytic MMP3 (Homo sapiens, UniProt P14780, R574P).
T1 construct: made in house; host or cells: HEK293 (proMMP9, secreted); E. coli (MMP3)
The experiment is described as follows: proMMP9/MMP3 P126 Activation Assay. The format is biochemical. How it is done:
proMMP9/MMP3 P126 Activation Assay
The reaction volume was 50 μL. […] Reactivity of residual MMP3 towards P-126 substrate was minimal under these conditions.

Experiment [2] concerns the target T2, proMMP9(20-445;ΔFnII) (SEQ ID NO:6) (Homo sapiens, UniProt P14780, DEL216-390).
T2 construct: start methionine (N); made in house; host or cells: E. coli BL21(DE3) RIL
T2 sequence (P14780 with tags, fused parts or gaps DEL216-390): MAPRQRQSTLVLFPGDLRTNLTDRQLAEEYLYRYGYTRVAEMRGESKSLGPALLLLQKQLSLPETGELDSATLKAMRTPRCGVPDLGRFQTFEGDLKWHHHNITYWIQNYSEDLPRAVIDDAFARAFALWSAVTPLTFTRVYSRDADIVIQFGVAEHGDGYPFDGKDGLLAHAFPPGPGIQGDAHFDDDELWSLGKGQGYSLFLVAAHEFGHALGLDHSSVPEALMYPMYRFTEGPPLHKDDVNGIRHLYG
Kind of experiment: ThermoFluor binding assay with proMMP9(20-445;ΔFnII). How it is done:
(§1) The ThermoFluor® (TF) assay is a 384-well plate-based binding assay that measures thermal stability of proteins (Biomol Screen 2001, 6, 429-40; Biochemistry 2005, 44, 5258-66). The experiments were carried out using instruments available from Johnson & Johnson Pharmaceutical Research & Development, LLC. TF dye used in all experiments was […] (1,8-ANS) (Invitrogen: A-47).
(§2) Compounds were arranged in a pre-dispensed plate (Greiner Bio-one: 781280), wherein compounds were serially diluted in 100% DMSO across 11 columns within a series. Columns 12 and 24 were used as DMSO reference and contained no compound. For multiple compound concentration-response experiments, the compound aliquots ([…]) were robotically predispensed directly into black 384-well polypropylene PCR microplates (Abgene: TF-0384/k) using a Cartesian Hummingbird liquid handler (DigiLab, Holliston, Mass.). Following compound dispense, protein and dye solutions were added to achieve the final assay volume of 3 μL. The assay solutions were overlayed with 1 μL of silicone oil (Fluka, type DC 200: 85411) to prevent evaporation.
(§3) Assay plates were robotically loaded onto a thermostatically controlled PCR-type thermal block and then heated from 40 to 90° C. at a ramp-rate of 1° C./min for all experiments. Fluorescence was measured by continuous illumination with UV light (Hamamatsu LC6) supplied via fiber optics and filtered through a band-pass filter (380-400 nm; >60D cutoff). Fluorescence emission of the entire 384-well plate was detected by measuring light intensity using a CCD camera (Sensys, Roper Scientific) filtered to detect 500±25 nm, resulting in simultaneous and independent readings of all 384 wells. A single image with 20-sec exposure time was collected at each temperature, and the sum of the pixel intensity in a given area of the assay plate was recorded vs temperature and fit to standard equations to yield the Tm (J Biomol Screen 2001, 6, 429-40).
(§4) Thermodynamic parameters necessary for fitting compound binding for each proMMP were estimated by differential scanning calorimetry (DSC) and from ThermoFluor® data. The heat capacity of unfolding for each protein was estimated from the molecular weight and from ThermoFluor® dosing data.
ThermoFluor® with proMMP9(20-445;ΔFnII) (SEQ ID NO:6)
The protein sample preparations included a desalting buffer exchange step via a PD-10 gravity column (GE Healthcare). The desalting buffer exchange was performed prior to diluting the protein to the final assay concentration of 2.8 μM proMMP9(20-445;ΔFnII) (SEQ ID NO:6). The concentration of proMMP9(20-445;ΔFnII) (SEQ ID NO:6) was determined spectrophotometrically based on a calculated extinction coefficient of ε280=39880 M^−1cm^−1, a calculated molecular weight of 28.2 kDa, and calculated pI of 5.5. ThermoFluor® reference conditions were define as follows: 80 μg/mL (2.8 μM) proMMP9(20-445;ΔFnII) (SEQ ID NO:6), 50 μM 1,8-ANS, pH 7.0 Buffer (50 mM HEPES pH 7.0, 100 mM NaCl, 0.001% Tween-20, 2.5 mM MgCl2, 300 μM CaCl2). The thermodynamic parameters for proMMP9(20-445;ΔFnII) (SEQ ID NO:6) are as follows: Tm (° C.)=72 (+/−0.1), ΔUH(Tm) (cal mol^−1)=160000(+/−5000), ΔUS(Tm) (cal mol^−1 K^−1)=434, ΔUCp (cal mol^−1 K^−1)=2400.

Experiment [3] deals with T3, proMMP9(67-444;ΔFnII) (SEQ ID NO:5) (Homo sapiens, UniProt P14780, DEL216-390).
T3 construct: start methionine (N); made in house; host or cells: E. coli BL21(DE3) RIL
T3 sequence (P14780 with tags, fused parts or gaps DEL216-390): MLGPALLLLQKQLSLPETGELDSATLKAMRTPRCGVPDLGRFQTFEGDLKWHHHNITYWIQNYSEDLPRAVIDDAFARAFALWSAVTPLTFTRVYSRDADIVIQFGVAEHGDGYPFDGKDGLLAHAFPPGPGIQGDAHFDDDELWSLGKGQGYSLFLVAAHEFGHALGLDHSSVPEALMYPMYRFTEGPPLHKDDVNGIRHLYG
The experiment is described as follows: ThermoFluor binding assay with proMMP9(67-444;ΔFnII). How it is done: as §1, §2, §3, §4
ThermoFluor® with proMMP9(67-444;ΔFnII) (SEQ ID NO:5)
The protein sample preparations had to include a desalting buffer exchange step via a PD-10 gravity column (GE Healthcare). The desalting buffer exchange was performed prior to diluting the protein to the final assay concentration of 3.5 μM proMMP9(67-444;ΔFnII) (SEQ ID NO:5). The concentration of proMMP9(67-444;ΔFnII) (SEQ ID NO:5) was determined spectrophotometrically based on a calculated extinction coefficient of ε280=33900 M^−1cm^−1, a calculated molecular weight of 22.6 kDa, and calculated pI of 5.20. ThermoFluor® reference conditions were defined as follows: 80 μg/mL (3.5 μM) proMMP9(67-444;ΔFnII) (SEQ ID NO:5), 50 μM 1,8-ANS, pH 7.0 Buffer (50 mM HEPES pH 7.0, 100 mM NaCl, 0.001% Tween-20, 2.5 mM MgCl2, 300 μM CaCl2). The thermodynamic parameters for proMMP9(67-444;ΔFnII) (SEQ ID NO:5) are as follows: Tm (° C.)=63 (+/−0.1), ΔUH(Tm) (cal mol^−1)=105000(+/−5000), ΔUS(Tm) (cal mol^−1 K^−1)=[…], ΔUCp (cal mol^−1 K^−1)=2000.
A general note: Differential scanning fluorimetry follows unfolding on heating by fluorescence.

T1 sequence (P14780 20-707 R574P): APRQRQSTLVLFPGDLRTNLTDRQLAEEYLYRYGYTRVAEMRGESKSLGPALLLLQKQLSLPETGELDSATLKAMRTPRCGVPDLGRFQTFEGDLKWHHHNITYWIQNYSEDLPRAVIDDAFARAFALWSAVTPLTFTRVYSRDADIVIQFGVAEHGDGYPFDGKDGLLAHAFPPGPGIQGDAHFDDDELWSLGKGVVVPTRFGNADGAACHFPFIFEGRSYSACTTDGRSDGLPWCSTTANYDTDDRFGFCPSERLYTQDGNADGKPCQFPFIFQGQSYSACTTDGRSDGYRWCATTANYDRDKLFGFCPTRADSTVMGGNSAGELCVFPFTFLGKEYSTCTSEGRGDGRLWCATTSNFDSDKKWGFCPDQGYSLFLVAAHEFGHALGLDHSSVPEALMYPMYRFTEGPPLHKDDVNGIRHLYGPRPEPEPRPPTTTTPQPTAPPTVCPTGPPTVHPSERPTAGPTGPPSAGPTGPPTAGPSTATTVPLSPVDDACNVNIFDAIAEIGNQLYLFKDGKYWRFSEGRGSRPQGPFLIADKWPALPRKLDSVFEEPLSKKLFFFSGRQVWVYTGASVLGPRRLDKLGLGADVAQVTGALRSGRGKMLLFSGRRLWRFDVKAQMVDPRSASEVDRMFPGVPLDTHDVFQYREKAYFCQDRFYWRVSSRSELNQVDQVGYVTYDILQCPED

`CC(C)Oc1ccc(S(N)(=O)=O)cc1Nc1nc(-c2ccc(N3CCC(N(C)C)CC3)nc2)cs1` [Example 41, 3-[4-(4-Dimethylamino-3,4,5,6-tetrahydro-2H-[1,2′]bipyridinyl-5′-yl)-thiazol-2-ylamino]-4-isopropoxy-benzenesulfonamide.TFA] yielded an IC50 in experiment [1] of 59 nM. Further, the Kd in experiment [2] turned out to be 51 nM; in experiment [3], 220 nM.
`CC(C)Oc1ccc(S(N)(=O)=O)cc1Nc1nc(-c2ccc(C(=O)N3CCC(N(C)C)CC3)nc2)cs1` [Example 48, 3-{4-[6-(4-Dimethylamino-piperidine-1-carbonyl)-pyridin-3-yl]-thiazol-2-ylamino}-4-isopropoxy-benzenesulfonamide.TFA] displayed an IC50 in experiment [1] of 1100 nM. Also, the equilibrium dissociation constant (Kd) in experiment [2] came out at 2300 nM; in experiment [3], 4100 nM.
In turn, `CC(C)Oc1ccc(S(C)(=O)=O)cc1Nc1nc(-c2cccnc2)cs1` [Example 10, (2-Isopropoxy-5-methanesulfonyl-phenyl)-(4-pyridin-3-yl-thiazol-2-yl)-amine.TFA] returned an IC50 in experiment [1] of 2600 nM. For the same compound, the results for the Kd in experiment [2] and in experiment [3] were 660 nM and 3500 nM, respectively.
On the same counts, the results for `CC(C)Oc1ccc(S(N)(=O)=O)cc1Nc1nc(-c2ccc(N3CCN(C)CC3)nc2)cs1` [Example 33, 4-Isopropoxy-3-{4-[6-(4-methyl-piperazin-1-yl)-pyridin-3-yl]-thiazol-2-ylamino}-benzenesulfonamide.HCl] are 140 nM, 46 nM and 120 nM.
On the same counts, the results for `CC(C)Oc1ccc(S(N)(=O)=O)cc1Nc1nc(-c2ccc(NCCCn3ccnc3)nc2)cs1` [Example 63, 3-((4-(6-((3-(1H-Imidazol-1-yl)propyl)amino)pyridin-3-yl)thiazol-2-yl)amino)-4-isopropoxybenzenesulfonamide.TFA] are 150 nM, 210 nM and 280 nM.
On the same counts, the results for `CC(C)Oc1ccc(S(N)(=O)=O)cc1Nc1nc(-c2ccc(N3CCOCC3)nc2)cs1` [Example 37, 4-Isopropoxy-3-[4-(6-morpholin-4-yl-pyridin-3-yl)-thiazol-2-ylamino]-benzenesulfonamide.TFA] are roughly 2000 nM, 1300 nM and 2400 nM.
The compound `CC(C)Oc1ccc(S(N)(=O)=O)cc1Nc1nc(-c2ccc(N3CCN(C(C)C)CC3)nc2)cs1` [Example 39, 4-Isopropoxy-3-{4-[6-(4-isopropyl-piperazin-1-yl)-pyridin-3-yl]-thiazol-2-ylamino}-benzenesulfonamide.TFA] gave an IC50 in experiment [1] of 87 nM. For the same compound, the Kd worked out at 70 nM in experiment [2] and 170 nM in experiment [3].
On the same counts, the results for `COc1ccc(S(N)(=O)=O)cc1Nc1nc(-c2ccc(N3CCN(C)CC3)nc2)cs1` [Example 29, 4-Methoxy-3-{4-[6-(4-methyl-piperazin-1-yl)-pyridin-3-yl]-thiazol-2-ylamino}-benzenesulfonamide] are 1400 nM, 930 nM and 1600 nM.
On the same counts, the results for `CC(C)Oc1ccc(S(N)(=O)=O)cc1Nc1nc(-c2ccc(C(=O)NC3CCN(C)CC3)nc2)cs1` [Example 55, 5-[2-(2-Isopropoxy-5-sulfamoyl-phenylamino)-thiazol-4-yl]-pyridine-2-carboxylic acid (1-methyl-piperidin-4-yl)-amide.TFA] are 420 nM, 810 nM and 2600 nM.
On the same counts, the results for `CC(C)Oc1ccc(S(N)(=O)=O)cc1Nc1nc(-c2ccc(N(C)CCN(C)C)nc2)cs1` [Example 43, 3-(4-{6-[(2-Dimethylamino-ethyl)-methyl-amino]-pyridin-3-yl}-thiazol-2-ylamino)-4-isopropoxy-benzenesulfonamide.TFA] are 200 nM, 120 nM and 1700 nM.
